Test results reported in patent US11672786B2, “Methods of treating diseases associated with repeat instability” (The Hospital for Sick Children, priority 2016, dated 2023).

Tested on: fully-duplexed (CAG)50●(CTG)50
Test: band-shift NA-DNA binding, fully-duplexed repeat
Set-up: species or system human
Details: NA 0.15-50 μM, 4% polyacrylamide gel
Excerpt: FIG. 2 are the results of experiments showing that NA binds to long CAG slip-outs. […] The (CAG)n DNA sequence (left) can fold into an hairpin structure involving mismatched A-A pair flanking C-G base pairs (middle). NA molecules can intercalate into the DNA helix, with the 2-amino-1,8-naphthyridine moiety (in red) hydrogen bonding to guanine and 8-azaquinolone moiety (in blue) hydrogen bonding to adenine. […] Long slip-outs extruded as a single slip-out from a fully base-paired backbone of (CTG)n●(CAG)n, as described (Pearson et al., 2002, Nuc. Acids Res., 30:4534-47). DNAs were mixed with increasing concentrations of NA (0.15 μM, 0.75 μM, 7.5 μM and 50 μM) and resolved on 4% polyacrylamide gels. All lanes are from the same gel, and they were separated for clarity. NA-DNA complexes are shown by brackets, free DNA is indicated by arrowheads. […] The relative migration was measured for the linear and the three slip-outs substrates as the ratio of the migration distance of each NA-DNA complex to the migration distance of the free DNA. The migration distance was measured from the well to a consistent center point of each band. […]

For naphthyridine-azaquinolone, the “NA binding (band-shift)” value was “did not bind”.
